Measurements reported in patent US5914327A, “Biaryl-pyridoquinazolinone derivatives as anti-cancer agents” (American Cyanamid Company, priority 1997, dated 1999).
Converted amounts (≈) assume the structure as drawn. Counter-ions that a name gives are not always drawn.

Assays:
A2780 S = test: In vitro cytotoxicity, two cell line test procedure (A2780 S); assay type: cell-based; details: Homo sapiens, A2780S; 48 hours exposure, sulforhodamine B
Method: (§1) Description of the two cell line test procedure
(§2) A2780 S and A2780 DDP cells [Biochemical and Molecular Properties of Cisplatin-resistant A2780 Cells Grown in Folinic Acid; Y. Lu, J. Hnan, and K. Scanlon, J. Biol. Chem., 263, 4891-4894, 1988.] are grown in RPMI 1640 medium containing 5% fetal calf serum, 50 μg/ml streptomycin, 50 units/ml penicillin, 50 μg/ml gentamycin, 0.03% L-glutamine, 1 nM estradiol, 1 nM testosterone, 5 μg/mlinsulin, 5 μg/ml transferrin, and 5 ng/ml selenous acid, at 37° C., in a humidified atmosphere, containing 5% CO2. Experiments are done in the same media.
(§3) Cells are plated at the concentration of 5×10^4 /ml on Day 0 of the experiment. On Day one control cells are fixed with trichloroacetic acid and 5 ten fold dilutions of tested compounds are added, in duplicates, to the remaining cells. On Day 3 (48 hours exposure to drugs) all cells are fixed with trichloroacetic acid, stained with 0.4% sulforhodamine B, and absorbency is read at 520 nm. The IC50s (concentration causing 50% inhibition) are determined for each drug.

A2780 DDP = test: In vitro cytotoxicity, two cell line test procedure (A2780 DDP); assay type: cell-based; details: Homo sapiens, 48 hours exposure, sulforhodamine B, cisplatin-resistant
Method: as §1, §2, §3

COLON 26 = test: Murine Colon 26 Advanced, Metastatic Tumor; assay type: in vivo, murine (CD2F1 mice)
Method: (§4) Murine Tumor Standard Pharmacological Test Procedures
Murine Colon 26 Advanced, Metastatic Tumor
CD2F1 mice are injected i.p. with 5×10^5 tumor cells on Day 0 of the test. […]

P388 [1] = test: Murine P388 Leukemia; assay type: in vivo, murine (CD2F1 mice); details: days 1,5,9
Method: as §4
CD2F1 mice are injected i.p. with 1×10^6 tumor cells on Day 0 of the test. Drugs are administered i.p. on Days 1, 5, and 9 after the tumor implantation.

LS174T = test: Human Tumor Xenograft Standard Pharmacological Test Procedure; assay type: in vivo, human tumor in athymic nude mice; details: days 1,5,9
Source text: Human Tumor Xenograft Standard Pharmacological Test Procedure

P388 [2] = test: Murine P388 Leukemia; assay type: in vivo, murine (CD2F1 mice); details: 200 mg/kg i.p., days 1,5
[3] = Denny et al., Mutation Research 232: 233 (1990); cited from earlier work
P388 [4] = details: Denny et al., Mutation Research 232: 233 (1990); cited from earlier work

Structure (SMILES) | IC50 (A2780 S) [µg/mL] | IC50 (A2780 DDP) [µg/mL] | further results
O=C(NCCNCCO)c1cccn2c(=O)c3cc(-c4ccccc4)ccc3nc12 [Example 26, 11H-pyrido[2,1-b]quinazoline-6-carboxamide, N-[2-[(2-hydroxyethyl)amino]-ethyl]-11-oxo-2-phenyl, dihydrochloride] | 0.8 | 3.5 | –
CN(C)CCNC(=O)c1cccn2c(=O)c3cc(-c4cccc(N(C)C)c4)ccc3nc12 [Example 21] | 0.2 (≈ 0.466 µM) | 0.5 (≈ 1.16 µM) | –
COc1cccc2c1C(=O)c1c(O)c3c(c(O)c1C2=O)C[C@@](O)(C(=O)CO)C[C@@H]3O[C@H]1C[C@H](N)[C@H](O)[C@H](C)O1 [Adriamycin, reference compound] | – | – | % ILS (COLON 26; 4 mg/kg i.p., days 5,9,14): +71 % ILS
CN(C)CCNC(=O)c1cccn2c(=O)c3cc(-c4ccccc4-c4ccccc4)ccc3nc12 [Example 14, 11H-Pyrido[2,1-b]quinazoline-6-carboxamide, 2-[1,1'biphenyl]-2-yl-N-[2-(dimethylamino)ethyl]-11-oxo] | 4.4 (≈ 9.51 µM) | 4.8 (≈ 10.4 µM) | –
Nc1ccccc1-c1ccc2nc3c(C(=O)NCCNCCO)cccn3c(=O)c2c1 [Example 30, 11H-Pyrido[2,1-b]quinazoline-6-carboxamide, 2-(2-aminophenyl)-N-[2-[(2-hydroxyethyl)amino]ethyl]-11-oxo-trihydrochloride] | 4.8 | 6.9 | –
COc1ccc(-c2ccc3nc4c(C(=O)NCCN(C)C)cccn4c(=O)c3c2)cc1 [Example 19, 11H-Pyrido[2,1-b]quinazoline-6-carboxamide, N-[2-(dimethylamino)ethyl]-2-(4-methoxyphenyl)-11-oxo] | 4.3 (≈ 10.3 µM) | 3.4 (≈ 8.16 µM) | % ILS (P388 [1]; 50 mg/kg i.p.): -9 % ILS; % ILS (P388 [1]; 100 mg/kg i.p.): +4 % ILS; % ILS (P388 [1]; 200 mg/kg i.p.): +6 % ILS
CN(C)CCNC(=O)c1cccn2c(=O)c3cc(-c4cccc(N)c4)ccc3nc12 [Example 13, 11H-Pyrido[2,1-b]quinazoline-6-carboxamide, 2-(3-aminophenyl)-N-[2-(dimethylamino)ethyl]-11-oxo] | 0.4 (≈ 0.996 µM) | 3.7 (≈ 9.22 µM) | % ILS (P388 [1]; 25 mg/kg i.p.): +4 % ILS; % ILS (P388 [1]; 50 mg/kg i.p.): +2 % ILS; % ILS (P388 [1]; 100 mg/kg i.p.): +20 % ILS; % ILS (P388 [1]; 200 mg/kg i.p.): +57 % ILS; % ILS (COLON 26; 100 mg/kg i.p., days 5,9,13): +18 % ILS; % ILS (COLON 26; 200 mg/kg i.p., days 5,9,13): +24 % ILS; % ILS (COLON 26; 250 mg/kg i.p., days 5,9,13): +35 % ILS; % T/C (relative tumor growth treated/placebo) (LS174T; 250 mg/kg i.p.): 59 % T/C; % T/C (relative tumor growth treated/placebo) (LS174T; 300 mg/kg i.p.): 44 % T/C
CN(C)CCNC(=O)c1cccn2c(=O)c3ccc(-c4cccc(N)c4)cc3nc12 [Example 35, 11H-Pyrido[2,1-b]quinazoline-6-carboxamide, 3-(3-aminophenyl)-N-[2-(dimethylamino)ethyl]-11-oxo] | 0.5 (≈ 1.25 µM) | 0.4 (≈ 0.996 µM) | –
CN(C)CCNC(=O)c1cccn2c(=O)c3cc(-c4cc5ccccc5c5ccccc45)ccc3nc12 [Example 16] | 4.1 (≈ 8.43 µM) | 5.3 (≈ 10.9 µM) | –
CN(C)CCNC(=O)c1cccn2c(=O)c3cc(-c4cccc(C(F)(F)F)c4)ccc3nc12 [Example 18] | 1.1 (≈ 2.42 µM) | 4.2 (≈ 9.24 µM) | –
CN(C)CCNC(=O)c1cccn2c(=O)c3cc(-c4cccc(-c5ccccc5)c4)ccc3nc12 [Example 15, 11H-Pyrido[2,1-b]quinazoline-6-carboxamide, 2-[1,1'-biphenyl]-3-yl-N-[2-(dimethylamino)ethyl]-11-oxo] | 0.6 (≈ 1.3 µM) | 0.8 (≈ 1.73 µM) | % ILS (P388 [1]; 50 mg/kg i.p.): +8 % ILS; % ILS (P388 [1]; 100 mg/kg i.p.): +2 % ILS; % ILS (P388 [2]): -40 % ILS
CN(C)CCNC(=O)c1cccn2c(=O)c3ccccc3nc12 [I, N-[2-(dimethylamino)ethyl]-11-oxo-11H-pyrido[2,1-b]quinalzoline-6-carboxamide] | – | – | in vitro activity [3]: showed some in vitro activity; activity in P388 mouse model (P388 [4]): inactive in a P388 mouse model
CN(C)CCNC(=O)c1cccn2c(=O)c3cc(-c4cccc5ccccc45)ccc3nc12 [Example 17, 11H-pyrido[2,1-b)quinazoline-6-carboxamide, N-[2-(dimethylamino)ethyl]-2-(1-naphthalenyl)-11-oxo] | 4.6 (≈ 10.5 µM) | 4.7 (≈ 10.8 µM) | –
Nc1cccc(-c2ccc3nc4c(C(=O)NCCNCCO)cccn4c(=O)c3c2)c1 [Example 24, 11H-Pyrido [2,1-b]quinazoline-6-carboxamide, 2-(3-aminophenyl)-N-[2-[(2-hydroxyethyl)amino]ethyl]-11-oxo-trihydrochloride] | 0.6 | 2.1 | % ILS (P388 [1]; 25 mg/kg i.p.): +12 % ILS; % ILS (P388 [1]; 50 mg/kg i.p.): +4 % ILS; % ILS (P388 [1]; 100 mg/kg i.p.): +4 % ILS; % ILS (P388 [1]; 200 mg/kg i.p.): 0 % ILS; % ILS (COLON 26; 200 mg/kg i.p., days 5,9,13): +24 % ILS; % ILS (COLON 26; 300 mg/kg i.p., days 5,9,13): -24 % ILS
CC[C@]1(O)C[C@H]2CN(CCc3c([nH]c4ccccc34)[C@@](C(=O)OC)(c3cc4c(cc3OC)N(C=O)[C@H]3[C@@](O)(C(=O)OC)[C@H](OC(C)=O)[C@]5(CC)C=CCN6CC[C@]43[C@@H]65)C2)C1 [Vincristine, reference compound] | – | – | % ILS (P388 [1]; 0.8 mg/kg i.p.): +114 % ILS; % T/C (relative tumor growth treated/placebo) (LS174T; 1.0 mg/kg i.p.): 52 % T/C
CN(C)CCNC(=O)c1cccn2c(=O)c3cc(-c4cc(C(F)(F)F)cc(C(F)(F)F)c4)ccc3nc12 [Example 20, 11H-Pyrido[2,1-b]quinazoline-6-carboxamide, 2-[3,5-bis(trifluoromethyl)phenyl]-N-[2-(dimethylamino)ethyl]-11-oxo] | 3.8 (≈ 7.27 µM) | 3 (≈ 5.74 µM) | –
